What was measured:
[1] = tested on: glyphosate resistant soybean cultivar DK5961RR inoculated with B. japonicum (USDA 110); experiment: Seed-imbibed glyphosate: nodulation, greenhouse experiment; assay type: in vivo
Protocol: (§1) Pots 15-cm in diameter, with a total volume of 1.3 L were filled with a peat based potting mix that was saturated with a nitrogen-free nutrient solution. Six seeds from a particular glyphosate-concentration seed soak were planted in each pot and 1 ml of B. japonicum (USDA 110) containing approximately 4.24×10^6 cells was applied evenly across the surface and washed into the potting mix with 250 ml of minus N nutrients. Plants were thinned to one per pot after emergence. Day and night temperatures were approximately 30 and 24 C, respectively, and natural illumination was supplemented with 1000 W metal-halide lamps for a day length of 16 hours. […] Root nodules were scanned and images were used to determine nodule number and size as influenced by glyphosate treatment. The […] was repeated in a controlled environmental growth chamber with six replications. Growth chamber temperature was a constant 25 C and light and dark periods were 16 and 8 hours, respectively. Plants were harvested at 15 days after planting and sectioned as previously described (Example 1).

[2] = tested on: GR soybean cultivars A4501RR, A5901RR, DK5961RR, H5164RR, TV5866RR; experiment: Greenhouse Example 2: sensitivity of five GR soybean cultivars to glyphosate; assay type: in vivo, soybean (Glycine max); conditions: 40 DAE
Description: The other plants were not treated and served as controls. […] The experiment was a completely random design with six replications.

[3] = tested on: soybean cultivar DK5961RR; experiment: Greenhouse Example 3: response to glyphosate with and without available soil nitrogen; assay type: in vivo, soybean (Glycine max)
Protocol: Treatments were a factorial arrangement of two harvest dates, plus and minus soil nitrogen, and plus and minus glyphosate application. Experimental conditions were similar to those described for Examples 1 and 2, including timing of nutrient applications. […] Plants were harvested at 19 and 40 DAE as described previously. For the plus nitrogen treatment, plants harvested at 19 and 40 DAE received in the nutrient solution at total of 150 and 300 mg N as NO3^−1, respectively. The experiment was a randomized complete block with six replications and was repeated.

cultivar TV5866RR = experiment: Growth cabinet: nitrogenase activity (relative ARA) under soil-water deficits; assay type: in vivo, soybean (Glycine max)
Protocol: Plants were established in flow-through pots (Purcell et al., 1997) for nondestructive measurement of acetylene-reduction activity (ARA) as an indicator of relative nitrogenase activity. Pots were constructed of 10-cm-diameter, 40-cm-long polyvinyl chloride pipe, sealed at the bottom and top with end caps. Fittings were inserted into the bottom for drainage and introduction of air samples during ARA measurements, and into the top for air exhaust and sampling. Pot tare weights were recorded prior to adding potting mixture. Potting media and nutrients were the same as described in Examples 1-3. […] After allowing excess water to drain for 12 h, pot capacity weights were recorded. […]
ARA was measured beginning 28 DAE by introducing a 9:1 air to acetylene mixture at 0.5 L min^−1 into the bottom of the pots that were sealed around the plant root system. […] Ethylene concentration in the gas samples was quantified by gas chromatography using a flame ionization detector and a Porapak N column (de Silva et al., 1996). […] Ethylene concentrations were expressed as μmol C2H4 plant^−1h^−1, and means within an experiment and sample date were compared using standard errors. […]
Soil-water data were converted from pot capacity weight to fraction of the transpirable soil water (FTSW) (de Silva et al., 1996). […] Soil weight at zero transpirable water was determined to be 0.24 of the soil weight at pot capacity. […]

[4] = tested on: glyphosate resistant soybean cultivar DK5961RR inoculated with B. japonicum (USDA 110); experiment: Seed-imbibed glyphosate: nodulation, growth chamber experiment; assay type: in vivo; conditions: glyphosate concentrations greater than 12 mM
Protocol: as §1

[5] = DK5961RR, Harvest 1 (19 DAE), soil nitrogen no
[6] = DK5961RR, Harvest 1 (19 DAE), soil nitrogen yes
[7] = DK5961RR, Harvest 2 (40 DAE), averaged over soil nitrogen treatments

Which results are given for O=C(O)CNCP(=O)(O)O [glyphosate, N-(phosphonomethyl)glycine]?
Reduction in nodule number compared to the control ([1]; 3.1 mM glyphosate seed treatment, 10 DAP): ~30%; Nodule number ([1]; glyphosate concentrations greater than 3.1 mM): increased to values similar to that of plants from the control treatment; Average diameter of individual nodules ([1]; increasing glyphosate concentrations, 17 DAP): tended to decrease; Shoot mass effect [2]: decreased; Biomass Nodule ([2]; A4501RR, E + L treatment): 0.47 g plant^−1; Biomass Root ([2]; A4501RR, E + L treatment): 1.22 g plant^−1; Biomass Shoot ([2]; A4501RR, E + L treatment): 4.55 g plant^−1; Nitrogen Root ([2]; A4501RR, E + L treatment): 45 mg plant^−1; Nitrogen Shoot ([2]; A4501RR, E + L treatment): 185 mg plant^−1; Nodule biomass effect ([2]; A5901RR): increased; Biomass Nodule ([2]; A5901RR, E + L treatment): 0.54 g plant^−1; Biomass Root ([2]; A5901RR, E + L treatment): 0.93 g plant^−1; Biomass Shoot ([2]; A5901RR, E + L treatment): 4.03 g plant^−1; Nitrogen Root ([2]; A5901RR, E + L treatment): 45 mg plant^−1; Nitrogen Shoot ([2]; A5901RR, E + L treatment): 163 mg plant^−1; Nodule mass effect ([2]; DK5961RR): decreased; Biomass Nodule ([2]; DK5961RR, E + L treatment): 0.40 g plant^−1; Biomass Root ([2]; DK5961RR, E + L treatment): 0.74 g plant^−1; Biomass Shoot ([2]; DK5961RR, E + L treatment): 3.41 g plant^−1; Nitrogen Root ([2]; DK5961RR, E + L treatment): 31 mg plant^−1; Nitrogen Shoot ([2]; DK5961RR, E + L treatment): 142 mg plant^−1; Biomass Nodule ([2]; H5164RR, E + L treatment): 0.47 g plant^−1; Biomass Root ([2]; H5164RR, E + L treatment): 1.18 g plant^−1; Biomass Shoot ([2]; H5164RR, E + L treatment): 4.36 g plant^−1; Nitrogen Root ([2]; H5164RR, E + L treatment): 46 mg plant^−1; Nitrogen Shoot ([2]; H5164RR, E + L treatment): 170 mg plant^−1; Biomass Root ([2]; TV5866RR, E + L treatment): 0.71 g plant^−1; Biomass Shoot ([2]; TV5866RR, E + L treatment): 3.07 g plant^−1; Nitrogen Root ([2]; TV5866RR, E + L treatment): 35 mg plant^−1; Nitrogen Shoot ([2]; TV5866RR, E + L treatment): 131 mg plant^−1; Biomass Nodule ([2]; TV5866RR, E + L: 1.68 kg ai ha^−1 at 5, 10, 18, 25, and 32 DAE): 0.34 g plant^−1; Measured biomass or nitrogen parameters ([2]; cultivars A5901RR or H5164RR): None of the measured biomass or nitrogen parameters were decreased; Plant biomass or nitrogen content effect ([3]; DK5961RR, 19 DAE, without soil nitrogen): did not decrease; Biomass Root [3, 5]: 0.30b g plant^−1; Biomass Shoot [3, 5]: 0.63bc g plant^−1; Nitrogen Root [3, 5]: 7.53b mg plant^−1; Nitrogen Shoot [3, 5]: 22.2c mg plant^−1; Biomass Shoot [3, 6]: 0.58c g plant^−1; Nitrogen Root [3, 6]: 5.77c mg plant^−1; Nitrogen Shoot [3, 6]: 31.0b mg plant^−1; Biomass Root ([3]; DK5961RR, Harvest 1 (19 DAE), soil nitrogen yes, 1.68 kg ha^−1 5 and 12 DAE): 0.20c g plant^−1; Biomass Root [3, 7]: 0.48 g plant^−1; Biomass Shoot [3, 7]: 1.81 g plant^−1; Nitrogen Root [3, 7]: 11.1 mg plant^−1; Nitrogen Shoot [3, 7]: 70.7 mg plant^−1; Shoot nitrogen content decrease ([3]; Harvest 2 (40 DAE), averaged across soil nitrogen treatments): 13%; Sensitivity of ARA to water deficits vs untreated plants (cultivar TV5866RR; in vivo): more sensitive; Nitrogenase activity, % of the well-watered control (cultivar TV5866RR; water-deficit plants at FTSW of 0.21, 1.68 kg ha^−1 on 5, 12, and 19 DAE): 71%; Nodule number [4]: progressively decreased
